Assay results: patent publication US12576070B2, “Medicine for improving state of pregnancy, and use thereof” (priority 2014, dated 2026)
Entries after “also recorded” stand apart in the source; their conditions may differ.

System: repeated implantation failure (RIF) patients with elevated Th1/Th2 cell ratios
Assay: Tacrolimus treatment of repeated implantation failure (RIF) patients during IVF/ET, prospective cohort study (Example 1)
Assay type: in vivo, human
Procedure: This was a prospective cohort study of treatment for RIF patients (n=42) with elevated peripheral blood Th1 (CD4^+/IFN-γ^+)/Th2 (CD4^+/IL-4^+) cell ratios at the Sugiyama clinic between November 2011 and October 2013. Twenty-five patients were treated with tacrolimus (treatment group) and 17 received no treatment (control group).
Treatment group continuously received tacrolimus from two days before embryo transfer until the day of the pregnancy test, for a total of 16 days. The daily dose of tacrolimus (1-3 mg) was determined based on the degree of the Th1/Th2 cell ratio.
A total of 81 patients with a history of 5 or more RIF after IVF/ET cycles were consecutively enrolled in the study at the division of Reproductive Medicine, the Sugiyama clinic, Tokyo, Japan, between November 2011 and February 2014. This study was approved by the Institutional Review Board of the Sugiyama Clinic. A signed informed consent form was obtained from all patients prior to entering the study.
Study patients were assessed by transvaginal ultrasound, hysterosalpingography, and hysteroscopy before the index ART cycle. None of the participants had submucosal fibroids, endometrial polyps, intrauterine adhesions, congenital anomalies of uterus or hydrosalpinges. In addition, none of the women had any history of autoimmune disease. Pregnant women or women with chronic medical or inflammatory conditions were excluded. Women who miscarried in a former IVF cycle or had IVF cycles, or received vaccination in 3 months were excluded in the study. Women with acquired or inherited thrombophilia were also excluded in this study.
Blood was drawn between cycle day (CD) 5 and 10 prior to the index ART cycle for the evaluation of a baseline value of Th1/Th2 cell ratios. Forty-two patients had elevated Th1/Th2 cell ratio (≥10.3) and 39 had normal Th1/Th2 cell ratio (≤10.3). […] Blood was drawn between CD5 and CD10 of the menstrual cycle. A Th1/Th2 cell ratio equal to 10.3 or above was classified as an elevated Th1/Th2 cell ratio, which was determined by the mean plus one standard deviation of Th1/Th2 cell ratio levels.
For the evaluation of a baseline value of Th1/Th2 cell ratios, total 10 ml of venous blood was obtained. Th1 and Th2 cells were determined by detecting the intracellular interferon (IFN)-γ and IL-4 production.
The specific staining of lymphocytes was performed by incubating whole blood with anti-CD4-PC5 or anti-CD8-PC5-conjugated monoclonal antibodies (mAbs) (Beckman Coulter, Fullerton, Calif, USA). The red blood cells (RBCS) were then removed by lysis (FACS Lysing solution; Becton Dickinson, BD Biosciences, Franklin Lake. N.J., USA) and the lymphocytes were analyzed using flow cytometry (FACSCalibur; Becton Dickson). After surface staining of the activated whole blood samples with anti-CD4-PC5 conjugated mAbs, RBC lysis and specific intracellular staining using FASTIMMUNE™ IFN-γ-FITC/IL-4-PE (Becton Dickinson) were subsequently performed according to the manufacturer's instructions. Th1 cells were defined as CD4^+ lymphocytes with intracellular IFN-γ but without IL-4. Th2 cells were detected as CD4^+ lymphocytes with intracellular IL-4 but without IFN-γ. The ratio of IFN-γ to IL-4 positive Th cells was expressed as the Th1/Th2 cell ratio.
In 42 patients with elevated Th1/Th2 cytokine ratios (equal or above 10.3), 25 of them were treated with tacrolimus (PROGRAF®, Astellas Pharma, Tokyo; treatment group), and the others (n=17) were not treated (control group) during the index IVF/ET cycles. The patients in the treatment group began tacrolimus two days prior to ET and continued until the day of pregnancy test, for a total of 16 days. […]

[1] = 1 mg daily, n = 12, Th1/Th2 cell ratio ≥10.3 and <13.0
[2] = 2 mg daily, n = 8, Th1/Th2 cell ratio ≥13.0 and <15.8
[3] = 3 mg daily, n = 5, Th1/Th2 cell ratio ≥15.8
[4] = treatment group n = 25, tacrolimus 1-3 mg daily for 16 days
[5] = treatment group, 15 newborns, mean ± standard deviation
[6] = treatment group, 15 newborns, mean ± standard deviation, listed as tacrorimus

Compound: C=CCC1/C=C(\C)CC(C)CC(OC)C2OC(O)(C(=O)C(=O)N3CCCCC3C(=O)OC(/C(C)=C/C3CCC(O)C(OC)C3)C(C)C(O)CC1=O)C(C)CC2OC (stereo not drawn) [tacrolimus, 17-Allyl-1,14-dihydroxy-12-[2-(4-hydroxy-3-methoxycyclohexyl)-1-methylvinyl]-23,2 5-dimethoxy-13,19,21,27-tetramethyl-11,28-dioxa-4-azatricyclo[22.3.1.04,9]octacos-18-ene-2,3,10,16-tetraone]
- Clinical pregnancy with 1 mg of tacrolimus (%) [1]: 83.3%
- Live birth with 1 mg of tacrolimus (%) [1]: 83.3%
- Clinical pregnancy With 2 mg of tacrolimus [2]: 50.0%
- Live birth With 2 mg of tacrolimus [2]: 37.5%
- Clinical pregnancy with 3 mg of tacrolimus [3]: 40.0%
- Live birth with 3 mg of tacrolimus [3]: 40.0%
- FET success rate relative to reported success rate (39%) of women under 35 (FET cycle with tacrolimus, 75% versus 2011 CDC report 39%): 1.9 times
- Positive hCG (%) (RIF patients with elevated Th1/Th2 cell ratio, treatment group n = 25, tacrolimus 1-3 mg daily for 16 days from two days before ET): 64%
- birth weight (mean±SD) (newborns of the treatment group, as given in the text): 2,995±400 g
- Spontaneous abortion rate (%) (pregnant patients of the treatment group, one miscarriage at 10 weeks gestation): 6.3%
- Side effect from tacrolimus (treatment group n = 25, 1-3 mg daily for 16 days): no significant side effect; also recorded: no one reported side effect
- Clinical pregnancy rate per ET (%) [4]: 64.0%
- Live birth rate (%) [4]: 60%
- Implantation rate (%) (treatment group n = 25, tacrolimus 1-3 mg daily for 16 days from two days before ET, 16/35): 45.7%
- APGAR score at 1 minutes after birth [5]: 8.3±0.5
- APGAR score at 5 minutes after birth [5]: 9.2±0.5
- Gestational days to delivery [5]: 279.5 ± 10.6 days
- Umbilical cord gas analysis (pH) [5]: 7.2 ± 0.05 pH
- Birth weight (gm) (treatment group, 15 newborns, mean ± standard deviation (Table 4)): 3,021 ± 371 gm
- APGAR score at 1 minutes after birth [6]: 8.3 ± 0.5
- APGAR score at 5 minutes after birth [6]: 9.2 ± 0.6
- Gestational days to delivery [6]: 279.5 ± 10.6 days
- Live birth rate of fresh ET (%) (treatment group, fresh ET (n = 9)): 33.3%
- Clinical pregnancy of fresh ET (%) (treatment group, fresh ET (n = 9), tacrolimus 1-3 mg daily for 16 days): 44.4%
- Live birth rate of thawed ET (%) (treatment group, frozen-thawed ET (n = 16)): 75%
- Clinical pregnancy of cryo-thaw ET (%) (treatment group, frozen-thawed ET (n = 16), tacrolimus 1-3 mg daily for 16 days): 75%
- Number of newborns (women with multiple implantation failures (5 or more) treated with tacrolimus): 15
